Source: patent US10538555B2, “Macrocyclic inhibitors of the PD-1/PD-L1 and CD80(B7-1)/PD-L1 protein/protein interactions” (BRISTOL-MYERS SQUIBB COMPANY, priority 2014, dated 2020)
pIC50: −log10 of the molar value. Where a SMILES comes first, the peptide text is derived from it. Bridges are numbered along the chain shown (N, C = ends). [ ]: non-standard residue; d: D form. Trp(1-CH2COOH) = N[C@@H](Cc1cn(CC(=O)O)c2ccccc12)C(=O)O; Bta = N[C@@H](Cc1csc2ccccc12)C(=O)O; Hyp = O=C(O)[C@@H]1C[C@@H](O)CN1; NMeE = CN[C@@H](CCC(=O)O)C(=O)O; NMeNle = CCCC[C@H](NC)C(=O)O; NMeA = CN[C@@H](C)C(=O)O; Dab = NCC[C@H](N)C(=O)O; Dap = NC[C@H](N)C(=O)O

molecular target: T1, Human PD-L1/PD-1 (Homo sapiens, UniProt Q9NZQ7); test: HTRF Human PD-L1/PD-1 binding assay (PD-1-Ig/PD-L1-His); conditions: PD-L1-His 10 nM, PD-1-Ig 20 nM; class symbol; read-out: HTRF Human PD-L1/PD-1 Binding Assay IC50 Range
T1 construct: TVMV protease cleavage site (C); made in house; host or cells: HEK293T cells
T1 sequence (Q9NZQ7 with tags, fused parts or gaps): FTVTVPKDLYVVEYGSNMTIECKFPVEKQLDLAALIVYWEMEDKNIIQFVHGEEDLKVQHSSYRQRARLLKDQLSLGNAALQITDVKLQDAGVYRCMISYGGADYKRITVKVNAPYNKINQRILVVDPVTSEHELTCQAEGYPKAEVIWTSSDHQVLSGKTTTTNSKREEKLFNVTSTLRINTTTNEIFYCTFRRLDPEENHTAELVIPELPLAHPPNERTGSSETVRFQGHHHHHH
Summary of the method: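 HTRF read-out (665/620 nm ratio) after 30 min equilibration with Eu-cryptate anti-Ig mAb (1 nM) and APC anti-His mAb (20 nM). Peptides preincubated 15 min with PD-L1-His (10 nM), then PD-1-Ig (20 nM) added for 15 min.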

Structure (SMILES)	pIC50
CCCC[C@H]1C(=O)N(C)[C@@H](CCCC)C(=O)N[C@@H](CCC(=O)O)C(=O)N[C@H](C(=O)NCC(N)=O)CSCC(=O)N[C@@H](Cc2ccc(O)cc2)C(=O)N(C)[C@@H](C)C(=O)N[C@@H](CC(=O)O)C(=O)N2CCC[C@H]2C(=O)N[C@@H](Cc2cnc[nH]2)C(=O)N[C@@H](CCC(=O)O)C(=O)N2C[C@H](O)C[C@H]2C(=O)N[C@@H](Cc2c[nH]c3ccccc23)C(=O)N[C@@H](CCC(=O)O)C(=O)N[C@@H](Cc2c[nH]c3ccccc23)C(=O)N1C [Example 5236] ({CH2CO}-Y[NMeA]DPHE[Hyp]WEW[NMeNle][NMeNle]ECG-NH2; thioether N-14)	8.00 to 9.00
CCCC[C@H]1C(=O)N(C)[C@@H](CCCC)C(=O)N[C@@H](CN)C(=O)N[C@H](C(=O)NCC(N)=O)CSCC(=O)N[C@@H](Cc2ccc(O)cc2)C(=O)N(C)[C@@H](C)C(=O)N[C@@H](CC(=O)O)C(=O)N2CCC[C@H]2C(=O)N[C@@H](Cc2cnc[nH]2)C(=O)N[C@@H](CCC(N)=O)C(=O)N2C[C@H](O)C[C@H]2C(=O)N[C@@H](Cc2c[nH]c3ccccc23)C(=O)N[C@@H](CCN)C(=O)N[C@@H](Cc2cn(CC(=O)O)c3ccccc23)C(=O)N1C [Example 5238] ({CH2CO}-Y[NMeA]DPHQ[Hyp]W[Dab][Trp(1-CH2COOH)][NMeNle][NMeNle][Dap]CG-NH2; thioether N-14)	8.00 to 9.00
CCCC[C@H]1C(=O)N(C)[C@@H](CCCC)C(=O)N[C@@H](CCC(=O)O)C(=O)N[C@H](C(=O)NCC(N)=O)CSCC(=O)N[C@@H](Cc2ccc(O)cc2)C(=O)N(C)[C@@H](C)C(=O)N[C@@H](CC(N)=O)C(=O)N2CCC[C@H]2C(=O)N[C@@H](CO)C(=O)N[C@@H](CCC(N)=O)C(=O)N2C[C@H](O)C[C@H]2C(=O)N[C@@H](Cc2c[nH]c3ccccc23)C(=O)N[C@@H](CCC(=O)O)C(=O)N[C@@H](Cc2c[nH]c3ccccc23)C(=O)N1C [Example 5240] ({CH2CO}-Y[NMeA]NPSQ[Hyp]WEW[NMeNle][NMeNle]ECG-NH2; thioether N-14)	8.00 to 9.00
CCCC[C@H]1C(=O)N(C)[C@@H](CCCC)C(=O)N[C@@H](CC(C)C)C(=O)N[C@H](C(=O)NCC(N)=O)CSCC(=O)N[C@@H](Cc2ccc(O)cc2)C(=O)N(C)[C@@H](C)C(=O)N[C@@H](CC(N)=O)C(=O)N2CCC[C@H]2C(=O)N[C@@H](Cc2cnc[nH]2)C(=O)N[C@@H](CCC(N)=O)C(=O)N2C[C@H](O)C[C@H]2C(=O)N[C@@H](Cc2c[nH]c3ccccc23)C(=O)N[C@@H](CCN)C(=O)N[C@@H](Cc2cn(CC(=O)O)c3ccccc23)C(=O)N1C [Example 5241] ({CH2CO}-Y[NMeA]NPHQ[Hyp]W[Dab][Trp(1-CH2COOH)][NMeNle][NMeNle]LCG-NH2; thioether N-14)	7.00 to 8.00
CCCC[C@H]1C(=O)N(C)[C@@H](CCCC)C(=O)N[C@@H](CCC(=O)O)C(=O)N[C@H](C(=O)NCC(N)=O)CSCC(=O)N[C@@H](Cc2ccc(O)cc2)C(=O)N(C)[C@@H](C)C(=O)N[C@@H](CC(N)=O)C(=O)N2CCC[C@H]2C(=O)N[C@@H](CN)C(=O)N[C@@H](CCC(=O)O)C(=O)N2C[C@H](O)C[C@H]2C(=O)N[C@@H](Cc2c[nH]c3ccccc23)C(=O)N[C@@H](CO)C(=O)N[C@@H](Cc2c[nH]c3ccccc23)C(=O)N1C [Example 5242] ({CH2CO}-Y[NMeA]NP[Dap]E[Hyp]WSW[NMeNle][NMeNle]ECG-NH2; thioether N-14)	8.00 to 9.00
CCCC[C@H]1C(=O)N(C)[C@@H](CCCC)C(=O)N[C@@H](CCC(=O)O)C(=O)N[C@H](C(=O)NCC(N)=O)CSCC(=O)N[C@@H](Cc2ccc(O)cc2)C(=O)N(C)[C@@H](C)C(=O)N[C@@H](CC(N)=O)C(=O)N2CCC[C@H]2C(=O)N[C@@H](CN)C(=O)N[C@@H](CCC(=O)O)C(=O)N2C[C@H](O)C[C@H]2C(=O)N[C@@H](Cc2c[nH]c3ccccc23)C(=O)N[C@@H](CCC(=O)O)C(=O)N[C@@H](Cc2c[nH]c3ccccc23)C(=O)N1C [Example 5243] ({CH2CO}-Y[NMeA]NP[Dap]E[Hyp]WEW[NMeNle][NMeNle]ECG-NH2; thioether N-14)	6.00 to 7.00
CCCC[C@H]1C(=O)N(C)[C@@H](CCCC)C(=O)N[C@@H](CCC(=O)O)C(=O)N[C@H](C(=O)NCC(N)=O)CSCC(=O)N[C@@H](Cc2ccc(O)cc2)C(=O)N(C)[C@@H](C)C(=O)N[C@@H](CC(=O)O)C(=O)N2CCC[C@H]2C(=O)N[C@@H](CN)C(=O)N[C@@H](CCC(N)=O)C(=O)N2C[C@H](O)C[C@H]2C(=O)N[C@@H](Cc2c[nH]c3ccccc23)C(=O)N[C@@H](CCC(=O)O)C(=O)N[C@@H](Cc2c[nH]c3ccccc23)C(=O)N1C [Example 5245] ({CH2CO}-Y[NMeA]DP[Dap]Q[Hyp]WEW[NMeNle][NMeNle]ECG-NH2; thioether N-14)	8.00 to 9.00
CCCC[C@H]1C(=O)N(C)[C@@H](CCCC)C(=O)N[C@@H](CCC(=O)O)C(=O)N[C@H](C(=O)NCC(N)=O)CSCC(=O)N[C@@H](Cc2ccc(O)cc2)C(=O)N(C)[C@@H](C)C(=O)N[C@@H](CC(=O)O)C(=O)N2CCC[C@H]2C(=O)N[C@@H](CN)C(=O)N[C@@H](CCC(N)=O)C(=O)N2C[C@H](O)C[C@H]2C(=O)N[C@@H](Cc2c[nH]c3ccccc23)C(=O)N[C@@H](CO)C(=O)N[C@@H](Cc2c[nH]c3ccccc23)C(=O)N1C [Example 5246] ({CH2CO}-Y[NMeA]DP[Dap]Q[Hyp]WSW[NMeNle][NMeNle]ECG-NH2; thioether N-14)	8.00 to 9.00
CCCC[C@H]1C(=O)N(C)[C@@H](CCCC)C(=O)N[C@@H](CCC(=O)O)C(=O)N[C@H](C(=O)NCC(N)=O)CSCC(=O)N[C@@H](Cc2ccc(O)cc2)C(=O)N(C)[C@@H](C)C(=O)N[C@@H](CC(N)=O)C(=O)N2CCC[C@H]2C(=O)N[C@@H](CO)C(=O)N[C@@H](CC(C)C)C(=O)N2C[C@H](O)C[C@H]2C(=O)N[C@@H](Cc2c[nH]c3ccccc23)C(=O)N[C@@H](CCN)C(=O)N[C@@H](Cc2c[nH]c3ccccc23)C(=O)N1C [Example 5247] ({CH2CO}-Y[NMeA]NPSL[Hyp]W[Dab]W[NMeNle][NMeNle]ECG-NH2; thioether N-14)	8.00 to 9.00
CCCC[C@H]1C(=O)N(C)[C@@H](CCC(=O)O)C(=O)N[C@@H](CN)C(=O)N[C@H](C(=O)NCC(N)=O)CSCC(=O)N[C@@H](Cc2ccc(O)cc2)C(=O)N(C)[C@@H](C)C(=O)N[C@@H](CC(N)=O)C(=O)N2CCC[C@H]2C(=O)N[C@@H](Cc2c[nH]cn2)C(=O)N[C@@H](CCC(=O)O)C(=O)N2C[C@H](O)C[C@H]2C(=O)N[C@@H](Cc2c[nH]c3ccccc23)C(=O)N[C@@H](CCN)C(=O)N[C@@H](Cc2c[nH]c3ccccc23)C(=O)N1C [Example 5249] ({CH2CO}-Y[NMeA]NPHE[Hyp]W[Dab]W[NMeNle][NMeE][Dap]CG-NH2; thioether N-14)	7.00 to 8.00

The remaining lines, values ahead:

pIC50	Structure (SMILES)
8.00 to 9.00	CCCC[C@H]1C(=O)N(C)[C@@H](CCCC)C(=O)N[C@@H](CCC(=O)O)C(=O)N[C@H](C(=O)NCC(N)=O)CSCC(=O)N[C@@H](Cc2ccc(O)cc2)C(=O)N(C)[C@@H](C)C(=O)N[C@@H](CC(=O)O)C(=O)N2CCC[C@H]2C(=O)N[C@@H](CO)C(=O)N[C@@H](CCC(=O)O)C(=O)N2C[C@H](O)C[C@H]2C(=O)N[C@@H](Cc2c[nH]c3ccccc23)C(=O)N[C@@H](CO)C(=O)N[C@@H](Cc2c[nH]c3ccccc23)C(=O)N1C [Example 5233] ({CH2CO}-Y[NMeA]DPSE[Hyp]WSW[NMeNle][NMeNle]ECG-NH2; thioether N-14)
8.00 to 9.00	CCCC[C@H]1C(=O)N(C)[C@@H](CCCC)C(=O)N[C@@H](CC(C)C)C(=O)N[C@H](C(=O)NCC(N)=O)CSCC(=O)N[C@@H](Cc2ccc(O)cc2)C(=O)N(C)[C@@H](C)C(=O)N[C@@H](CC(N)=O)C(=O)N(C)[C@@H](C)C(=O)N[C@@H](Cc2cnc[nH]2)C(=O)N[C@@H](CCC(N)=O)C(=O)N2C[C@H](O)C[C@H]2C(=O)N[C@@H](Cc2c[nH]c3ccccc23)C(=O)N[C@@H](CO)C(=O)N[C@@H](Cc2c[nH]c3ccccc23)C(=O)N1C [Example 5234] ({CH2CO}-Y[NMeA]N[NMeA]HQ[Hyp]WSW[NMeNle][NMeNle]LCG-NH2; thioether N-14)
8.00 to 9.00	CCCC[C@H]1C(=O)N(C)[C@@H](CCCC)C(=O)N[C@@H](CCC(=O)O)C(=O)N[C@H](C(=O)NCC(N)=O)CSCC(=O)N[C@@H](Cc2ccc(O)cc2)C(=O)N(C)[C@@H](C)C(=O)N[C@@H](CC(N)=O)C(=O)N2CCC[C@H]2C(=O)N[C@@H](CN)C(=O)N[C@@H](CCC(N)=O)C(=O)N2C[C@H](O)C[C@H]2C(=O)N[C@@H](Cc2c[nH]c3ccccc23)C(=O)N[C@@H](CCN)C(=O)N[C@@H](Cc2c[nH]c3ccccc23)C(=O)N1C [Example 5237] ({CH2CO}-Y[NMeA]NP[Dap]Q[Hyp]W[Dab]W[NMeNle][NMeNle]ECG-NH2; thioether N-14)
8.00 to 9.00	CCCC[C@H]1C(=O)N(C)[C@@H](CCCC)C(=O)N[C@@H](CC(C)C)C(=O)N[C@H](C(=O)NCC(N)=O)CSCC(=O)N[C@@H](Cc2ccc(O)cc2)C(=O)N(C)[C@@H](C)C(=O)N[C@@H](CC(N)=O)C(=O)N2CCC[C@H]2C(=O)N[C@H](C)C(=O)N[C@@H](CCC(=O)O)C(=O)N2C[C@H](O)C[C@H]2C(=O)N[C@@H](Cc2c[nH]c3ccccc23)C(=O)N[C@@H](CCN)C(=O)N[C@@H](Cc2csc3ccccc23)C(=O)N1C [Example 5248] ({CH2CO}-Y[NMeA]NP[dA]E[Hyp]W[Dab][Bta][NMeNle][NMeNle]LCG-NH2; thioether N-14)
8.00 to 9.00	CCCC[C@H]1C(=O)N(C)[C@@H](CCCC)C(=O)N[C@@H](CCC(=O)O)C(=O)N[C@H](C(=O)NCC(N)=O)CSCC(=O)N[C@@H](Cc2ccc(O)cc2)C(=O)N(C)[C@@H](C)C(=O)N[C@@H](CC(N)=O)C(=O)N2CCC[C@H]2C(=O)N[C@@H](CO)C(=O)N[C@@H](CCC(N)=O)C(=O)N2C[C@H](O)C[C@H]2C(=O)N[C@@H](Cc2c[nH]c3ccccc23)C(=O)N[C@@H](CCN)C(=O)N[C@@H](Cc2c[nH]c3ccccc23)C(=O)N1C [Example 5251] ({CH2CO}-Y[NMeA]NPSQ[Hyp]W[Dab]W[NMeNle][NMeNle]ECG-NH2; thioether N-14)
